The source of these data is article PMC12731536, “Sc(III) Complexes of Pyclen Derivative Ligands as Probes for Hypoxia: Synthesis, Chemical Characterization, ^44Sc‐Radiolabeling, and Preclinical Assessment” (Chemistry (Weinheim an Der Bergstrasse, Germany), 2025).

Like-named read-outs stand apart in the source and are kept apart here.

The nature of data set [1]: pH‐potentiometric determination of ligand protonation constants. Format: physicochemical. The note with it: I = 1.00 M NaCl, T = 25 °C. Here is the method:
The equilibrium study of the PC2AM^nBu ligand has been started by determining the protonation constants in 0.15 M and 1.00 M NaCl ionic strength. (As the stability of the Sc(III) complex was determined in 1.00 M ionic strength, we had to perform the pH‐potentiometric titration of ligands using 1.00 M ionic strengths also.) The results of pH‐potentiometric measurement are shown in Table 1, where the corresponding data for 3,9‐PC2A,^[ [42] ^] PCTA ^[ [46] ^] and PC2AM‐NI ligands determined under identical conditions are also presented. Knowledge of the protonation constants defined by Eqn. 1 and 2 are essential for the calculation of the stability constants of the Sc(III) complexes:
(1) PC2AM^nBu^2−+nH^+⇌Hn(PC2AM^nBu)^−2+n (2) βn=HnPC2AM^nBu^−2+n/PC2AM^nBu^2−H^+^n
The protonation constants of the ligands, as well as the concentrations of the ligand stock solutions, were determined by pH‐potentiometric method using a Metrohm 785 DMP Titrino automatic titrator using a Metrohm 6.00234.100 combined glass electrode. The titrations were carried out in the pH range 1.75–11.80 and the pH electrode was calibrated by a two‐point calibration routine with the use of 0.05 M KH‐phthalate (pH = 4.005) and 0.01 M borax (pH = 9.177 buffers. The samples were stirred at 25 °C (±0.1 °C) and N2 gas bubbled into the system to ensure inert conditions and to eliminate the effect of the presence of CO2. For the calculation of [H^+] from the measured pH values, the method proposed by Irving et al. was applied.^[ [61] ^] For this, a 0.01 M HCl solution was titrated with the standardized NaOH solution in the presence of 0.15 M NaCl ionic strength at 25 °C. The differences between the measured (pHread) and calculated pH (‐log[H^+]) values were used to obtain the equilibrium H^+ concentration from the pHmeas values during the titrations. By fitting the resulting titration curves (pH – V (NaOH) data pairs) with the PSEQUAD program, the protonation constants of the ligands were determined.^[ [47] ^] The titration of the [Sc(PC2AM^nBu)]^+ with NaOH was performed with the same method by applying very similar conditions.

For data set [2] the following is noted: I = 0.15 M NaCl, T = 25 °C; cited from earlier work.
Data set [3] can be described thus: Time course of Sc(III) complex formation, 45Sc NMR. Format: physicochemical. The note with it: ‐log[H^+] = 1.28, 25 °C. Here is the method:
The time course of complex formation of PC2AM^nBu and PCTA ligands with Sc(III) ion was investigated by ^45Sc‐NMR under acidic conditions (cSc = cligand = 10 mM and 9.5 mM, respectively, ‐log[H^+] = 1.28). The decrease of the narrow signal of the free Sc(III) ion was monitored as a function of time. […] The kinetic measurements of formation could be seen in Figures S18 and S19. The complexation for the [Sc(PCTA)] chelate at pH = 1.28 and 25 °C took about 300 minutes to reach the equilibrium, whereas for the [Sc(PC2AM^nBu)]^+ complex it took a bit longer time under these conditions. (In order to confirm that the samples reached the equilibrium, we have repeated the ^45Sc NMR study for both samples after a few days when the signal of the free Sc(III) was absent, and only the signals of the complexes were detected.) The detailed study of formation kinetics was not our aim in this project. One can expect that the reaction follows the well‐known mechanisms of M(III) ‐ macrocyclic APC systems ^[ [54] ^]: formation of a protonated intermediate in fast pre‐equilibrium followed by a slow, base‐catalyzed deprotonation/structural rearrangement as a rate‐determining step. The intermediate is named also as “out‐of‐cage complex.”^[ [55] ^] Our experimental curves are likely in accordance with this mechanism. Fitting the measured data for the free Sc(III) signals by a monoexponential function gives the rate constant k obs = (1.04 ± 0 .05) x 10^−4 s^−1 for the [Sc(PC2AM^nBu)]^+ and k obs = (2.51 ± 0.12) x 10^−4 s^−1 for the [Sc(PCTA)] complex. […] The relatively fast complex formation at the given acidic condition is very encouraging for the Sc(III) labeling experiments.
^45Sc NMR measurements (97 MHz) were performed on a Bruker DRX 400 (9.4 T) spectrometer equipped with a Bruker VT‐1000 thermocontroller and a BB inverse z‐gradient probe (5 mm). The kinetic experiments were performed at 25 °C in aqueous solution, using D2O (10% v/v) as a lock solvent. Typical parameters for 45Sc NMR measurements were used: TD = 32k, p1 = 15.6 µs (90°), d 1 = 0.1 s. The formation reactions of the [Sc(PC2AM^nBu)]^+ and [Sc(PCTA)] complexes were monitored by ^45Sc NMR spectroscopy in two sample types: one containing 10.0 mM PC2AM^nBu and ScCl3 / 9.5 mM […] and ScCl3. In both cases, the total acid concentration corresponded to a pH of 1.28. Obtained monoexponential curves (signal area of free Sc(III) vs. time) were fitted using Scientist software ^[ [62] ^] to determine the formation rate.

Data set [4] can be described thus: Fluoride binding of [Sc(PC2AM^nBu)]^+ (ternary complex stability), 19F NMR titration. In kind it is physicochemical. As to conditions: stability constant of the ternary fluoride complex, 19F NMR, pH = 5.2, I = 0.15 M NaCl, 25 °C. An excerpt: Sc(III) is a typical “hard” cation, forming very stable complexes with fluoride anion.^[ [51], [52] ^] […] The formation of the ternary [Sc(PC2AM^nBu)(F)] complex can be followed by […], as two sets of signals (Δδ ∼ 20 Hz) indicate a slow exchange regime on the […] time scale (Figure S16). Measuring the intensities of the free and bound fluoride signals, the stability constant (Eqn. 6) of the [Sc(PC2AM^nBu)(F)] complex (Eqn. 5) can be calculated (Table S1).
(5) [Sc(PC2AM^nBu)]^++F^−⇌[Sc(PC2AM^nBu)(F)] (6) KScLF=ScPC2AM^nBuF/[ScPC2AM^nBu^+]F^−
Table S1. Summary of data used for the calculation of the stability constant, log K[Sc(PC2AM^nBu)(F)] by titration of 0.005M [Sc(PC2AM^nBu)]^+ parent complex with different amounts of F^- (0.005 - 0.01 M concentration range) followed by 376.4 MHz ^19F NMR (I = 0.15 M NaCl, c Sc(PC2AM^nBu) = 5 mM, pH=5.20, T= 298 K).

With `O=C(O)CN1CCN(CC(=O)O)Cc2cccc(n2)CN(CC(=O)O)CC1` [PCTA, reference compound], in data set [1], the “log K 1 ^H” value is 9.22(6), the “log K 2 ^H” value is recorded as 7.30(8), the “log K 3 ^H” value is recorded as 4.09 (9) and the “log K 4 ^H” value is given as 1.42(8). For the same compound, in data set [1], the “log β 2 ^H” value came to 16.52. In addition, in data set [2], the “log K 1 ^H” value is 9.97, the “log K 2 ^H” value is listed as 6.73, the “log K 3 ^H” value is given as 3.22 and the “log K 4 ^H” value is 1.40. The “log β 2 ^H” value in data set [2] is 16.70.
For the compound `CCCCNC(=O)CN1CCN(CC(=O)[O-])Cc2cccc(n2)CN(CC(=O)[O-])CC1.[Sc+3]` [[Sc(PC2AM^nBu)]^+], the “half‐life of the complex formation reaction (t 1/2 = ln2 / k obs)” value in data set [3] came out at 1.83 h. In addition, the “log K ScLF” value in data set [4] is recorded as 2.5(2).
